Assay [1] concerns the target T1, Amine oxidase [copper-containing] 3 (Homo sapiens, UniProt Q16853).
T1 sequence (Q16853 whole entry): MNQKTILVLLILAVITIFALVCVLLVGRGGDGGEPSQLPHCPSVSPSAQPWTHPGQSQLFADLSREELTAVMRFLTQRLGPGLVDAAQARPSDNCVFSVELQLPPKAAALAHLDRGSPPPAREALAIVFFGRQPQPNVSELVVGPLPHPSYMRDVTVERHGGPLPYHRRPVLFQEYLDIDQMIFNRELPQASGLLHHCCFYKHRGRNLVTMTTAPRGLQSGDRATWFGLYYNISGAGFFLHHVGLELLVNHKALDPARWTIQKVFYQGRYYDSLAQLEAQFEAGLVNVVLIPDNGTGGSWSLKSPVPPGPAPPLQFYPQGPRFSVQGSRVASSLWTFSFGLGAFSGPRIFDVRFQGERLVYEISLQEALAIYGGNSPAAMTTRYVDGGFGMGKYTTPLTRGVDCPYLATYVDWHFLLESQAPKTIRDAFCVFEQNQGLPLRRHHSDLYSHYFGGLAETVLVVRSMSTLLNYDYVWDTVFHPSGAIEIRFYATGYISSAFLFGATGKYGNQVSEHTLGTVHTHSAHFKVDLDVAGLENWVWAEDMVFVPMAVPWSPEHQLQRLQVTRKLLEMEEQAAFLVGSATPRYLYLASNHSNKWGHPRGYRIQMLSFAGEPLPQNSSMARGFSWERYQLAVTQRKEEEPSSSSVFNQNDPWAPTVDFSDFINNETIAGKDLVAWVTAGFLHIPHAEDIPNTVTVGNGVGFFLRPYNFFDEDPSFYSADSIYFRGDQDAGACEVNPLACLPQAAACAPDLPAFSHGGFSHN
Briefly: Inhibitory Activity of Human Recombinant SSAO/VAP-1. An excerpt:
Test purpose: The following method is used to determine the inhibitory activity of the compounds in the examples of the present invention on human recombinant SSAO/VAP-1.Test Materials:Human recombinant SSAO/VAP-1 (VAP-1, human) was purchased from Sigma, Cat. No. SRP6241;Amplex Red Monoamine Oxidase Assay Kit was purchased from Invitrogen, Cat. No. A12214;384-well plate was purchased from Corning, Cat. No. 6005174;Amplex Red Hydrogen PeroxidePeroxidase Assay Kit was purchased from Invitrogen, Cat. No. A22188.Benzylamine hydrochloride was purchased from Sigma, Cat. No. B5136-25G;DMSO (Dimethyl Sulfoxide) was purchased from Sigma, Cat. No. D2650-100ML;Test Method:The test compound was dissolved in DMSO and diluted 4 times to a total of 10 concentrations. In a 384-well plate, 25 μL of human recombinant SSAO/VAP-1 (1.6 μg/mL) was added into each well. 100 nL of test compounds at different concentrations were added to each well containing human recombinant SSAO/VAP-1, and the plate was incubated at room temperature for 30 min. […] After 60 min, PerkinElmer's Envision was used to read the fluorescence value (RFU) under excitation at 530-560 nm and emission at 590 nm.

In assay [2] the target is T2, Diamine oxidase [copper-containing] (Homo sapiens, UniProt P19801).
T2 construct: gene AOC1
The assay is described as follows: Inhibition of DAO (Diamine Oxidase). On the procedure:
Test purpose: The following method is used to determine the selective inhibitory activity of the compound of the present invention on DAO.Test Materials:Human recombinant DAO (Recombinant Human ABP-1/DAO) was purchased from R&D, Cat. No. 8298-AO;Amplex Red Hydrogen PeroxidePeroxidase Assay Kit was purchased from Invitrogen, Cat. No. A22188;1,4-Diaminobutane dihydrochloride was purchased from Aladdin, Cat. No. D106194-25G.Test Method:The test compound was dissolved in DMSO and diluted 5 times to a total of 6 concentrations. In a 384-well plate, 24 μL of human recombinant DAO (1 μg/mL) was added into each well. 1 μL of test compounds at different concentrations were added to each well containing human recombinant DAO, and the plate was incubated at 37° C. for 30 min. After incubating for 30 min, 25 μL of Amplex Red Hydrogen Peroxide Peroxidase Assay Kit (containing 100 μM Amplex Red and 0.2 U/ml HRP) containing 1 M 1,4-butanediamine dihydrochloride was added into the corresponding wells, and the plate was incubated in the dark at 37° C. for 30 min. After 30 min, PHERAstar FSX microplate reader of BMG LABTECH was used to read the fluorescence value (RFU) under excitation at 540 nm and emission at 580 nm.

In BindingDB's records for patent US12258317 (Sunshine Lake Pharma Co., 2025) one finds IC50 data, which are given here for two compounds.

The structures appear in SMILES notation.

As a reminder, the IC50 is the concentration that gives 50% inhibition.

T2 sequence (P19801 20-751 limits assumed): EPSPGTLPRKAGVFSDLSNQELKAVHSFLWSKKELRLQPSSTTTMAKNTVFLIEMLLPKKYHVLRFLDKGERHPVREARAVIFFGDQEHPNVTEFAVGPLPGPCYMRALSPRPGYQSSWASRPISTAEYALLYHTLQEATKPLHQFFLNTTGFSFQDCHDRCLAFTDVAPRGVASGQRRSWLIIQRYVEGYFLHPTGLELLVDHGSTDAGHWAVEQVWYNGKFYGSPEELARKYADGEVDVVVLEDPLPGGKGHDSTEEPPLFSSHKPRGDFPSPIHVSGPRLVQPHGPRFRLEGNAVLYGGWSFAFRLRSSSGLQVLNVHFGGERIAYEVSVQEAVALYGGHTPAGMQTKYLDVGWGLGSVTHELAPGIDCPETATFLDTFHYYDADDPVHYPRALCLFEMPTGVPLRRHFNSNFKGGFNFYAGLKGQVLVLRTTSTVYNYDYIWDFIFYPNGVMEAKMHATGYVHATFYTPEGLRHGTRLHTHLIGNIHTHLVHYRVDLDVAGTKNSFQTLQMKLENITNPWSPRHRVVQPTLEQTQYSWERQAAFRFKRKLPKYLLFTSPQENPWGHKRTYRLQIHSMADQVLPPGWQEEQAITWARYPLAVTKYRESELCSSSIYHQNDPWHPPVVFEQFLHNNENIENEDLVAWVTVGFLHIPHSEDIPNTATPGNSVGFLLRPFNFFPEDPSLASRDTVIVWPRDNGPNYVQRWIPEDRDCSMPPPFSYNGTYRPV

Take `NC/C(=C\F)COc1ccc2c(c1)CCN(CC(N)=O)C2=O` [US12258317, Example 1]: the IC50 is 6.29 nM in assay [1] and more than 1000 nM in assay [2].

For `NC/C(=C/F)COc1ccc2c(c1)CCN(CC(N)=O)C2=O` [US12258317, Example 2], the IC50 in assay [1] is 2.2 nM.
